This passage reports HIF-2α protein levels results from patent US9261498B2, “Biomarker for sensitivity to mTOR inhibitor therapy in kidney cancer” (The Regents of the University of California, priority 2005, dated 2016).

The test relates to HIF-2α. Put plainly: Immunoblot of HIF-2α protein in VHL knockdown RCC cells. It counts as cell-based, human. Particulars: 1 and 10 nM CCI-779, 24 hours. The protocol:
(a) SN12C-CSCG and SN12C-VHLshRNA cell were treated with vehicle, 1 nM or 10 nM of CCI-779 and lysed 24 hours later. Lysates were subjected to immunoblotting for HIF-1α, HIF-2α, GLUT-1, CA-IX, p-eIF4G, p-S6 Ribosomal protein. Equal protein loading was verified using anti-β-actin antibody. (b) HIF-1α expression was probed by immunoblotting in SN12C-MSCV-5′TOP-HIF-1α cDNA (left panel) and SN12C-MSCV-HIF-1α cDNA (tight panel) post 24 hours of vehicle, 1 nM or 10 nM of CCI-779.
Cells and xenograft tumors were lysed in ECB lysis buffer (see, e.g. Kondo et al., Cancer Cell 1, 237-46 (2002)) or high-detergent buffer (2% SDS), (see, e.g. Chen et al., Nat Med 10, 33-9 (2004)), respectively, supplemented with complete protease and phosphatase inhibitor cocktails (Calbiochem). […] Bound antibody was detected using enhanced chemiluminescence (ECL, Amersham). For VEGF ELISA quantification, cells were plated in 6 well plates (1×10^5 per well). […] Thirty-six hours later, VEGF ELISA (R&D Systems) was performed according to the manufacturer's instructions, using a Fisher Plate reader. […]
Cells and xenograft tumors were lysed in ECB lysis buffer or high-detergent buffer (2% SDS), respectively, supplemented with complete protease and phosphatase inhibitor cocktails (Calbiochem). […] Bound antibody was detected using enhanced chemiluminescence (ECL, Amersham). […]
On the technique in general: Immunoblotting shows a protein as a band on a membrane.

SMILES strings stand for the structures. “Also recorded” adds a separate entry of the source.

As for `CO[C@H]1C[C@@H]2CC[C@@H](C)[C@@](O)(O2)C(=O)C(=O)N2CCCC[C@H]2C(=O)O[C@H]([C@H](C)C[C@@H]2CC[C@@H](OC(=O)C(C)(CO)CO)[C@H](OC)C2)CC(=O)[C@H](C)/C=C(\C)[C@@H](O)[C@@H](OC)C(=O)[C@H](C)C[C@H](C)/C=C/C=C/C=C/1C` [CCI-779], the HIF-2α protein levels entry is “dramatically reduced; also recorded: reduction; also recorded: decrease”.
